Our source for the melting point and IC50 values is US20100311729A1, “Substituted imidazopyridazines and pyrrolopyrimidines as lipid kinase inhibitors” (priority 2007, published 2010).

As a reminder, the melting point is the temperature, or range, at which the solid turns liquid.

Data set [1] deals with T1, PI3K alfa (Homo sapiens, UniProt P42336).
T1 construct: for the p110-a subunit (with a deletion of the first 20 amino acids); His tag (C); made in house; host or cells: baculovirus; Tn5 (Trichoplusia ni) or TiniPro insect cells
Description: PI3 kinase assay (Kinase-Glo luminescence), PI3K alfa. It is filed as biochemical. As to conditions: Enzymatic Data; read-out: PI3K alfa IC50 [umol]. In short, it runs like this: (§1)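 Recombinant PI3K constructs (alfa 10 nM, delta 10 nM, gamma 150 nM) with 1 μM ATP and 10 μg/mL phosphatidylinositol in Tris pH 7.5, MgCl2, NaCl, CHAPS, DTT; 60 min (alfa, delta) or 120 min (gamma) at room temperature. ATP depletion read by Kinase-Glo luminescence; IC50 from 4-parameter logistic fit over 8 concentrations.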
(In general: Kinase-Glo reads ATP consumption through a luciferase reaction.)

Data set [2] addresses T2, PI3K beta (Homo sapiens, UniProt P42338).
T2 construct: for the full-length p110-b subunit are generated and fused by overlapping PCR; His tag (C); made in house; host or cells: baculovirus; Tn5 (Trichoplusia ni) or TiniPro insect cells
Description: PI3 kinase assay (Kinase-Glo luminescence), PI3K beta. It is filed as biochemical. As to conditions: Enzymatic Data; read-out: PI3K beta IC50 [umol]. In short, it runs like this:
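PI3Kβ (25 nM, BV-949) with 10 μg/mL phosphatidylinositol in Tris pH 7.5/MgCl2/NaCl/CHAPS/DTT buffer; reaction started with 1 μM ATP, 60 min at room temperature. ATP depletion read by Kinase-Glo luminescence; 8-point dilutions, IC50 by four-parameter logistic fit.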

For data set [3], the target named is T3, PI3K delta (Homo sapiens, UniProt O00329).
T3 construct: for the full-length p110-d subunit are generated and fused by overlapping PCR; His tag (C); made in house; host or cells: baculovirus; Tn5 (Trichoplusia ni) or TiniPro insect cells
Description: PI3 kinase assay (Kinase-Glo luminescence), PI3K delta. It is filed as biochemical. As to conditions: Enzymatic Data; read-out: PI3K delta IC50 [umol]. The method in brief:
as §1

The target of data set [4] is T4, PI3K gamma (Homo sapiens, UniProt P48736).
T4 construct: PI3Kγ BV-950 p110g(D144aa)-C-Term His Tag; His tag (C); made in house; host or cells: construct from the Roger Williams lab (MRC LMB) in pVL1393; baculovirus; Tn5 (Trichoplusia ni) or TiniPro insect cells
Nature of the data set: PI3 kinase assay (Kinase-Glo luminescence), PI3K gamma. As to conditions: Enzymatic Data; read-out: PI3K gamma IC50 [umol]. It is filed as biochemical. In short, it runs like this: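 Kinase-Glo luminescence assay with 1 μM ATP and 10 μg/mL phosphatidylinositol (final), reaction started by ATP addition. IC50 from 4-parameter logistic fit of percent inhibition at 8 compound concentrations (usually 10 down to 0.003 […]).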

T1 sequence (P42336 with tags, fused parts or gaps limits assumed): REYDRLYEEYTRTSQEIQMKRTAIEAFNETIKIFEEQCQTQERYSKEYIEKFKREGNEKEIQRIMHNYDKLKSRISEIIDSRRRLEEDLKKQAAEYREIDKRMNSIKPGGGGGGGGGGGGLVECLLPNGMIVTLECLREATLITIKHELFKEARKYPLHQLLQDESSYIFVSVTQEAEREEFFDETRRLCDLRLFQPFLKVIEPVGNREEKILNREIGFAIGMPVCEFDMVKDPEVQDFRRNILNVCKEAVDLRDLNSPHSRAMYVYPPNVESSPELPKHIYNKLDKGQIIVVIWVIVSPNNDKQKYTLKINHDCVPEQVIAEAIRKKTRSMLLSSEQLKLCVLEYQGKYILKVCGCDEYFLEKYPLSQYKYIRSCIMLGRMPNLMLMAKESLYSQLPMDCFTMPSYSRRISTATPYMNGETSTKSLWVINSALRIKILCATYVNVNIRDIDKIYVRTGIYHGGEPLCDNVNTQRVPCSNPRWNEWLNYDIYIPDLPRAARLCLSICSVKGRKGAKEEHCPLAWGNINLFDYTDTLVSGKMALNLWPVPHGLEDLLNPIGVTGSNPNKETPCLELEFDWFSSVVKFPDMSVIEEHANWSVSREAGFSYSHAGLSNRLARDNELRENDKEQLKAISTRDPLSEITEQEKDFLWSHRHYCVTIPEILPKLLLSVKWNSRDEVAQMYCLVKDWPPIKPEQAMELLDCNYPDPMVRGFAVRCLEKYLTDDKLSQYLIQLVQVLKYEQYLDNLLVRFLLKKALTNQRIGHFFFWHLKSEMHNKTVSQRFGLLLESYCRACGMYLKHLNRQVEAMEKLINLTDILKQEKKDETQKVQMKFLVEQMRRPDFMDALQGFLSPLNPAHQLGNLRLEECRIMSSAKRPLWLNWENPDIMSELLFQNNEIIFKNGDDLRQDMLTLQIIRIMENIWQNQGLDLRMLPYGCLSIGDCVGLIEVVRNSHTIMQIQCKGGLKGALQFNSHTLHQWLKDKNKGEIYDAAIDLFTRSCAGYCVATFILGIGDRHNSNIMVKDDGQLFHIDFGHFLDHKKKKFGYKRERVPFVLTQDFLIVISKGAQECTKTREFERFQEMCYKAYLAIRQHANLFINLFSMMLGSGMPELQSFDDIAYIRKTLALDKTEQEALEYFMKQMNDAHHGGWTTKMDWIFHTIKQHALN
T3 sequence (O00329 with tags, fused parts or gaps limits assumed): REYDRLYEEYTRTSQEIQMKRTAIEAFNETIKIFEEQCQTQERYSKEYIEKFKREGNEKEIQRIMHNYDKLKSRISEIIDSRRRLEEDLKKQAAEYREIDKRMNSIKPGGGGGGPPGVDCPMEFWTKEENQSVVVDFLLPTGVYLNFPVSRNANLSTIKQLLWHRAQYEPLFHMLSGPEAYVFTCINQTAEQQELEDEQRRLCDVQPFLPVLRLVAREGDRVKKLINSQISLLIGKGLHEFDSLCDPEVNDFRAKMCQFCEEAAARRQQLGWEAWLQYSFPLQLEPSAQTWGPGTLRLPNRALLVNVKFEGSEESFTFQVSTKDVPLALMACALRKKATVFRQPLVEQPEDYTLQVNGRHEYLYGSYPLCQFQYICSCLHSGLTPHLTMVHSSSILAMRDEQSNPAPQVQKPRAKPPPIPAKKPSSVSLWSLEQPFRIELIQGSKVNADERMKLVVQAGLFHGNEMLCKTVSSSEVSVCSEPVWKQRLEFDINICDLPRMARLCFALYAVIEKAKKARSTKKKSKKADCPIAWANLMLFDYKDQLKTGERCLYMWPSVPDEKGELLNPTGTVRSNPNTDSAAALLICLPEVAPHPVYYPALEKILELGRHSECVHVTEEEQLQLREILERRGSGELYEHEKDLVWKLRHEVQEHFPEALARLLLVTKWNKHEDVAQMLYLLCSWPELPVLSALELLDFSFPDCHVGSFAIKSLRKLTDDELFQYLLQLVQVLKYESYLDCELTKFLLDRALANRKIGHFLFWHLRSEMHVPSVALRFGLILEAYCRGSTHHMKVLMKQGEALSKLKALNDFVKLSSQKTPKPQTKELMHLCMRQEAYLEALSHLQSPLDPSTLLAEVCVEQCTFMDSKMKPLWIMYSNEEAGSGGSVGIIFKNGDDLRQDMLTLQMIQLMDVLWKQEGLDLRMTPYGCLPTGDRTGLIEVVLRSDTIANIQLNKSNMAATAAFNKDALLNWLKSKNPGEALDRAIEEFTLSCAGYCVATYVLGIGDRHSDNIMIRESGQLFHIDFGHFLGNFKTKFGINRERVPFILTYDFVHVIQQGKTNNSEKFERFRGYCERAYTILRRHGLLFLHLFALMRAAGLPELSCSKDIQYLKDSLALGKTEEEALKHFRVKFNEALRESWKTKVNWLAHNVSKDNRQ
T4 sequence (P48736 144-1102 limits assumed): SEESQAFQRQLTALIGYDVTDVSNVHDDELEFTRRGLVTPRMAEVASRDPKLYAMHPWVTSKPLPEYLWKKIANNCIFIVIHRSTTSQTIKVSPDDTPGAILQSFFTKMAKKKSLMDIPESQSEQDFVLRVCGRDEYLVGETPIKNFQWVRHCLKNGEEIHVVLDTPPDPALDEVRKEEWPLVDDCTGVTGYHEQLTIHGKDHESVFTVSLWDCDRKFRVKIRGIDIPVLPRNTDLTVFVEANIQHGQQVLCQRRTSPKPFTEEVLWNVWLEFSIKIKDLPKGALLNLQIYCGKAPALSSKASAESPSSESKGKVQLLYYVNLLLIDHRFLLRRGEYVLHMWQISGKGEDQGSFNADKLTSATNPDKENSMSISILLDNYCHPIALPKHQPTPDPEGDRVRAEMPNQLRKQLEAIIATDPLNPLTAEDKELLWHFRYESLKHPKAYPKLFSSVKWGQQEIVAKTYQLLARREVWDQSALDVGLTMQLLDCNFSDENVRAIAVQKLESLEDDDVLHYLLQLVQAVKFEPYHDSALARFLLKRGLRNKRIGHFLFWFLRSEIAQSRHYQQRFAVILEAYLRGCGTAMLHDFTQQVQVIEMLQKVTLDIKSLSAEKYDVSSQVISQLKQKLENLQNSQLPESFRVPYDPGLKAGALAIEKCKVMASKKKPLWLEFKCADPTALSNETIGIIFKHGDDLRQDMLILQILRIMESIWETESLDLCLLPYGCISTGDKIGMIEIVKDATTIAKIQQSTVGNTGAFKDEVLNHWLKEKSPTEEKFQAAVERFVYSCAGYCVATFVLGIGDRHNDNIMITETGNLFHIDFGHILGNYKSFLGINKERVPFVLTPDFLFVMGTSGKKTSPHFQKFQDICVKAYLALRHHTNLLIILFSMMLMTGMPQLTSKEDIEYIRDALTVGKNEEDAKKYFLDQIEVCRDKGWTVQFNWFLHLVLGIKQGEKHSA
T2 sequence (P42338 with tags, fused parts or gaps limits assumed): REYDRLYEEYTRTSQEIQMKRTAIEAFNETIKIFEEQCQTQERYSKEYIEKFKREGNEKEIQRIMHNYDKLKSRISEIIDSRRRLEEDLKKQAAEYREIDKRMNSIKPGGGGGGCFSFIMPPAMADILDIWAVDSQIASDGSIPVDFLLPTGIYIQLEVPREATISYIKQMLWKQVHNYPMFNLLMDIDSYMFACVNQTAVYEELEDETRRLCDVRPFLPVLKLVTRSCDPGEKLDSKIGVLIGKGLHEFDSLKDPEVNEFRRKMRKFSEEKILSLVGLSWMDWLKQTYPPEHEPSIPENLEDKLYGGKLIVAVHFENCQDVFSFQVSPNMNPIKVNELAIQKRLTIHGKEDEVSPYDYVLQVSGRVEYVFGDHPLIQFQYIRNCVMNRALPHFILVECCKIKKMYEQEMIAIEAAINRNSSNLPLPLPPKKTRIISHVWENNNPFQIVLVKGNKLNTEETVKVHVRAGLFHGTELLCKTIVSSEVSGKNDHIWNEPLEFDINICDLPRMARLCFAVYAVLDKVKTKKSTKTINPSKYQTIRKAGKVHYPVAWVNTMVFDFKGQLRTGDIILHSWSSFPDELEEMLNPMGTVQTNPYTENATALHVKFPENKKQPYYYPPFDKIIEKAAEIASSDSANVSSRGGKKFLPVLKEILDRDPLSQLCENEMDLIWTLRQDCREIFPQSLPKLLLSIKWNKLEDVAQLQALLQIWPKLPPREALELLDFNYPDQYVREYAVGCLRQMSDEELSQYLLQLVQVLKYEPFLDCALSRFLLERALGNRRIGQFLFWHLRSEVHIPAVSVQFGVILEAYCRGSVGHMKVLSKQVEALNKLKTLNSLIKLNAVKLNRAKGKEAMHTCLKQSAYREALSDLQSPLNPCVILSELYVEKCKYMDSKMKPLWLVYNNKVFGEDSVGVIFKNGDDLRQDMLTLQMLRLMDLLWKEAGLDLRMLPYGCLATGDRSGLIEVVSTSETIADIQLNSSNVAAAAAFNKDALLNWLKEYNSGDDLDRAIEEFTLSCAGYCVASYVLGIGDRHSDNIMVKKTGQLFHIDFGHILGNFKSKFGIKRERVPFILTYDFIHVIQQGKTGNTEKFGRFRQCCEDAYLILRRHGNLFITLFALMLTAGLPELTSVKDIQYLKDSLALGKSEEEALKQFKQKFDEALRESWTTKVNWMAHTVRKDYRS

In turn, `COc1ccc(-c2cnn3ccc(-c4ccc(OCCCNC(=O)OC(C)(C)C)c(OC)c4)nc23)cc1OC` [Example 25, (3-{4-[3-(3,4-Dimethoxy-phenyl)-pyrazolo[1,5-a]pyrimidin-5-yl]-2-methoxy-phenoxy}-propyl)-carbamic acid tert-butyl ester] gave a melting point of 131 to 133 °C.

Molecule `Nc1ncc(-c2cnc3ccc(-c4ccc(OCC5(N)COC5)cc4)nn23)cc1C(F)(F)F` [Example 147, 5-{6-[4-(3-Amino-oxetan-3-ylmethoxy)-phenyl]-imidazo[1,2-b]pyridazin-3-yl}-3-trifluoromethyl-pyridin-2-yl amine] had a melting point of 198 to 200 °C. Moreover, the IC50 in data set [1] was determined as 0.061 µM. In addition, the IC50 in data set [2] amounted to 0.496 µM. Also, the IC50 in data set [3] was 0.227 µM. Besides, in data set [4], the IC50 worked out at 1.31 µM.

`COC(=O)NC1(COc2ccc(-c3ccc4ncc(-c5cnc(N)c(C(F)(F)F)c5)n4n3)cc2)COC1` [Example 148, (3-{4-[3-(6-Amino-5-trifluoromethyl-pyridin-3-yl)-imidazo[1,2-b]pyridazin-6-yl]-phenoxymethyl}-oxetan-3-yl)-carbamic acid methyl ester] gave a melting point of 220 to 222 °C. For the same molecule, the IC50 in data set [1] came out at 0.096 µM. The IC50 in data set [2] is 3.29 µM. Moreover, the IC50 in data set [3] was 0.369 µM. For the same molecule, the IC50 in data set [4] stood at 0.81 µM.

Molecule `CC(C)C(=O)NCC1(COc2ccc(-c3ccc4ncc(-c5cnc(N)c(C(F)(F)F)c5)n4n3)cc2)COC1` [Example 167] yielded a melting point of 205 to 207 °C. Also, the IC50 in data set [1] was determined as 0.035 µM. The IC50 in data set [2] is 1.48 µM. Moreover, in data set [3], the IC50 is 0.231 µM. Also, in data set [4], the IC50 was 2.04 µM.

As to `Nc1ncc(-c2ccc3ncc(-c4ccc(CO)cc4)n3n2)cc1C(F)(F)F` [Example 168, {4-[6-(6-Amino-5-trifluoromethyl-pyridin-3-yl)-imidazo[1,2-b]pyridazin-3-yl]-phenyl}-methanol], the melting point lay in the range of 290 to 292 °C. Also, the IC50 in data set [1] came out at 0.011 µM. The IC50 in data set [2] was 0.025 µM. Also, the IC50 in data set [3] was 0.014 µM. The IC50 in data set [4] was determined as 0.585 µM.

As for `Nc1ncc(-c2cnc3ccc(-c4ccc(OCC5(CNC(=O)C6CC6)COC5)cc4)nn23)cc1C(F)(F)F` [Example 172, Cyclopropanecarboxylic acid (3-{4-[3-(6-amino-5-trifluoromethyl-pyridin-3-yl)-imidazo[1,2-b]pyridazin-6-yl]-phenoxymethyl}-oxetan-3-ylmethyl)-amide], the melting point fell in the range of 223 to 225 °C. Further, the IC50 in data set [1] turned out to be 0.048 µM. Besides, in data set [2], the IC50 was found to be 1.05 µM. Moreover, the IC50 in data set [3] was found to be 0.139 µM. For the same molecule, the IC50 in data set [4] was 0.461 µM.

In turn, `COC(=O)NCC1(COc2ccc(-c3ccc4ncc(-c5cnc(N)c(C(F)(F)F)c5)n4n3)cc2)COC1` [Example 173, (3-{4-[3-(6-Amino-5-trifluoromethyl-pyridin-3-yl)-imidazo[1,2-b]Pyridazin-6-yl]-phenoxymethyl}-oxetan-3-ylmethyl)-carbamic acid methyl ester] yielded a melting point of 179 to 181 °C. Further, the IC50 in data set [1] stood at 0.039 µM. For the same molecule, the IC50 in data set [2] was determined as 1.02 µM. Besides, the IC50 in data set [3] stood at 0.113 µM. The IC50 in data set [4] is 0.516 µM.

As for `Nc1ncc(-c2ccc3ncc(-c4ccc(OCCCc5ccncc5)cc4)n3n2)cc1C(F)(F)F` [Example 174, 5-{3-[4-(3-Pyridin-4-yl-propoxy)-phenyl]-imidazo [1,2-b]pyridazin-6-yl}-3-trifluoro-methyl-pyridin-2-ylamine], the IC50 in data set [1] stood at 0.106 µM; in data set [2] it was 2.06 µM; in data set [3], 0.224 µM; in data set [4], 2.07 µM.

Consider `CC(C)(C)OC(=O)NCCCOc1ccc(-c2ccc3ncc(-c4cnc(N)c(C(F)(F)F)c4)n3n2)cn1` [Example 175, (3-{5-[3-(G-Amino-5-trifluoro-methyl-pyridin-3-yl)-imidazo [1,2-b]pyridazin-6-yl]-pyridin-2-yloxy}-propyl)-carbamic acid tert-butyl ester], for which the IC50 in data set [1] is 0.119 µM; in data set [2] it was 7.1 µM; in data set [3], 0.421 µM; in data set [4], above 9.1 µM.

Turning to `NCCCOc1ccc(-c2ccc3ncc(-c4cnc(N)c(C(F)(F)F)c4)n3n2)cn1` [Example 176, 5-{6-[6-(3-Amino-propoxy)-pyridin-3-yl]-imidazo-[1,2b]pyridazin-3-yl}-3-trifluoro-methyl-pyridin-2-ylamine], the IC50 in data set [1] stood at 0.082 µM; in data set [2], 0.081 µM; in data set [3] it was 0.041 µM; in data set [4], 2.44 µM.

As for `Nc1ncc(-c2cnc3ccc(-c4ccc(OCCCNC(=O)C5CC5)nc4)nn23)cc1C(F)(F)F` [Example 177, Cyclo-propane-carboxylic acid (3-{5-[3-(6-amino-5-trifluoro-methyl-pyridin-3-yl)-imidazo [1,2-b]pyridazin-6-yl]-pyridin-2-yloxy}-propyl)-amide], the IC50 in data set [1] is 0.011 µM; in data set [2], 0.331 µM; in data set [3], 0.092 µM; in data set [4] it was above 9.1 µM.

With `c1cc2cc(-c3cnc4ccc(-c5ccc6c(c5)OCO6)nn34)cnc2[nH]1` [Example 178, 6-Benzo [1,3] dioxol-5-yl-3-(1H-pyrrolo [2,3-b]pyridin-5-yl)-imidazo [1,2-b] pyridazine], the IC50 in data set [1] is 0.793 µM; in data set [2], 6.19 µM; in data set [3], 0.495 µM; in data set [4], above 9.1 µM.

For `COc1ccccc1-c1ccn2ncc(-c3ccc(C(N)=O)cc3)c2n1` [Example 179, 4-[5-(2-Methoxy-phenyl)-pyrazolo[1,5-a]pyrimidin-3-yl]-benzamide], the IC50 is 3.9 µM in data set [1], above 9.1 µM in data set [2], 0.448 µM in data set [3] and 2.93 µM in data set [4].

As for `Nc1ncc(-c2ccc3ncc(-c4ccc(CN5CCC(C(=O)N6CCCC6)CC5)cc4)n3n2)cc1C(F)(F)F` [Example 181], the melting point was 209 to 211 °C. The IC50 in data set [1] came out at 0.012 µM. In addition, the IC50 in data set [2] was 0.18 µM. Also, the IC50 in data set [3] worked out at 0.016 µM. The IC50 in data set [4] was found to be 1.08 µM.

On to `Nc1ncc(-c2ccc3ncc(-c4ccc(CN5CCC(C(=O)N6CCCCCC6)CC5)cc4)n3n2)cc1C(F)(F)F` [Example 182, (1-{4-[6-(6-Amino-5-trifluoromethyl-pyridin-3-yl)-imidazo[1,2-b]pyridazin-3-yl]-benzyl}-piperidin-4-yl)-azepan-1-yl-methanone], for which the melting point lay in the range of 249 to 252 °C.

`Nc1ncc(-c2ccc3ncc(-c4ccc(CN5CCC(C(=O)N6CCCCC6)CC5)cc4)n3n2)cc1C(F)(F)F` [Example 183, (1-{4-[6-(6-Amino-5-trifluoromethyl-pyridin-3-yl)-imidazo[1,2-b]pyridazin-3-yl]-benzyl}-piperidin-4-yl)-piperidin-1-yl-methanone] displayed a melting point of 263 to 266 °C.
